Measured values as given in US4540702A, “2-Substituted-4-thiazolidones” (Kureha Kagaku Kogyo Kabushiki Kaisha, priority 1979, dated 1985).

Legend:
Format in all cases: in vivo
[1] = Effect on duodenal peptic ulcer induced by acetic acid (Okabe et al.); details: oral 100 mg/kg/day, three times a day for 10 days; for inhibition in vivo at 100 mg/kg/day: Rattus norvegicus, po, 240 h, vs control group, read-out: Rate of curation of peptic ulcer; for Coefficient of peptic ulcer: acetic acid duodenal ulcer rat
Text: The inventors of the present invention, taking into account of these situations, added to the method of evaluation the effect of accelerating the curation of the peptic ulcer by orally administering the present compound and a commercialized anti-peptic medicine, respectively to rats to which duodenal peptic ulcer due to acetic acid (refer to Okabe, 1971) considered to be most closely resembling to human peptic ulcer has been artificially formed.
Following the method of Okabe et al. (refer to Amer. J. Dig. Dis., Vol. 16, 277, 1971), each male rat weighing 240 to 260 g of a group consisting of 15 animals was subjected to laparotomy under ether-anesthesia and a metal circular frame was put on a part of the serosa at the distance of 5 to 7 mm from the duodenal pylorus and 0.06 ml of glacial acetic acid was poured on the circular part of the frame. After 30 seconds, the acetic liquid was removed and the frame was also removed. Each of the present compounds suspended in an aqueous 0.5% CMC solution was orally administered to the rat from after 3 days of the operation three times a day for consecutive 10 days, rats of control group being given the aqueous 0.5% CMC solution. After ending the administration, the rats were sacrificed by ether, their duodenum being removed to be examined under a microscope for autopsy. The longitudinal and horizontal lengths of the thus formed ulcer were determined and the product of the lengths expressed by mm^2 was recorded as the coefficient of peptic ulcer. The rate of curation of peptic ulcer, in this Example is calculated by the same manner as the rate of suppression of peptic ulcer in Example 5.

[2] = Effect against peptic ulcer formed by ligating the pylorus (Shay et al.); details: pylorus-ligated rat, 100 mg/kg intraperitoneal; for inhibition in vivo at 100 mg/kg: Rattus norvegicus, ip, 15 h, vs control group, read-out: Rate of suppression of peptic ulcer; for Coefficient of peptic ulcer: 15 hours
Procedure: Each male rat of a group consisting of 10 animals, weighing 180 to 200 g, after 48 hours' fasting, was subjected to ligature at its pyloric part under the anesthesia by ether following the method of Shay et al. (refer to Gastroenterology, Vol. 5, 43, 1945). Just after the ligature, each of the present compounds suspended in an aqueous physiological saline solution was injected into each rat's abdominal cavity at a dose rate of 100 mg/kg body weight, the control group being injected with an aqueous physiological saline solution. After keeping the rats at a state of fasting without taking water for 15 hours, the rats were sacrificed by ether and their stomachs were removed to examine under a microscope for autopsy. The longitudinal and horizontal lengths of the thus formed peptic ulcer were determined and expressed by the product (mm^2), and the total sum of the products was represented as the coefficient of ulcer.
The rate of suppression of peptic ulcer (%) is expressed by the ratio of the difference between the coefficient of peptic ulcer of control group and the coefficient of peptic ulcer of the treated group to the coefficient of peptic ulcer of control group multiplied by 100.

[3] = Suppressive action on gastric secretion (pyloric ligature); details: rat, intraduodenal 200 mg/kg, 4 hours; for Rate of suppression on gastric secretion: vs control
Procedure: Groups of male rats (a group consisted of 10 animals) were subjected to pyloric ligature under etherization after fasting for 24 hours, and each of the compounds to be tested was administered intraduodenally as an emulsion or suspension in an aqueous 0.5% by weight solution of sodium carboxymethylcellulose just after ligation. After 4 hours of the laparotomy, the stomach of each rat was extirpated under etherization, and the amount of gastric juice in the stomach was measured.

| SMILES | inhibition in vivo at 100 mg/kg/day [1] [%] | Coefficient of peptic ulcer [1] [mm^2] | inhibition in vivo at 100 mg/kg [2] [%] | Coefficient of peptic ulcer [2] [mm^2] | Amount of gastric juice [3] [mL] | Rate of suppression on gastric secretion [3] [%] |
| --- | --- | --- | --- | --- | --- | --- |
| COc1cc(C2NC(=O)CS2)cc(OC)c1OC (stereo not drawn) [2-(3,4,5-trimethoxyphenyl)-4-thiazolidone] | 82.1 | 1.4 | 85.8 | 6.5 | – | – |
| COc1ccc(C2NC(=O)CS2)cc1OC (stereo not drawn) [2-(3,4-dimethoxyphenyl)-4-thiazolidone] | 80 | 1.5 | 91.9 | 3.4 | 3.3 | 50.7 |
| COc1ccccc1C1NC(=O)CS1 (stereo not drawn) [2-(2-methoxyphenyl)-4-thiazolidone] | 80 | 1.5 | 87.4 | 5.3 | 4.0 | 40.2 |
| COc1ccc(OC)c(C2NC(=O)CS2)c1 (stereo not drawn) [2-(2,5-dimethoxyphenyl)-4-thiazolidone] | 65.3 | 2.6 | 79 | 9.4 | 3.5 | 32.8 |
| COc1cccc(C2NC(=O)CS2)c1OC (stereo not drawn) [2-(2,3-dimethoxyphenyl)-4-thiazolidone] | 82.7 | 1.3 | 82.9 | 8.8 | 3.7 | 44.7 |
| COc1ccc(C2NC(=O)CS2)cc1 (stereo not drawn) [2-(4-methoxyphenyl)-4-thiazolidone] | 58.7 | 3.1 | 68.1 | 13.4 | – | – |
| COc1cccc(C2NC(=O)CS2)c1 (stereo not drawn) [2-(3-methoxyphenyl)-4-thiazolidone] | 73.3 | 2.0 | 86 | 5.5 | – | – |
| CN(C)c1ccc(C2NC(=O)CS2)cc1 (stereo not drawn) [2-(4-dimethylaminophenyl)-4-thiazolidone] | 88 | 2.4 | 75 | 10.5 | – | – |
| COc1cc(C2NC(=O)CS2)cc(OC)c1O (stereo not drawn) [2-(3,5-dimethoxy-4-hydroxyphenyl)-4-thiazolidone] | 88 | 2.4 | 81.9 | 7.6 | – | – |
| O=C1CSC(c2ccccc2C(=O)O)N1 (stereo not drawn) [2-(2-carboxyphenyl)-4-thiazolidone] | 60 | 3.0 | 79.8 | 8.5 | – | – |
| CC(C)=CCCC(C)=CCCC(C)=CCCC(=O)OCC=C(C)CCC=C(C)C [Gefarnate, 3,7dimethyl-2,6-octadienyl 5,9,13trimethyl-4,8,12-tetradecatrienoate, reference compound] | 23 | 5.8 | ~11 | 37.4 | 6.5 | 2.9 |
| CCOc1ccccc1C1NC(=O)CS1 (stereo not drawn) [2-(2-ethoxyphenyl)-4-thiazolidone] | 76 | 1.8 | 81.9 | 7.6 | 4.3 | 35.8 |
